This passage reports IC50 results from patent publication US12286429B2, “5-oxo-1,2,3,5,8,8a-hexahydroindolizine-3-carboxamide derivatives useful as a factor XIa inhibitors” (Janssen Pharmaceutica NV, priority 2021, dated 2025).

One experiment has as its target Factor XIa (Homo sapiens, UniProt P03951). Briefly: Factor XIa inhibition assay utilizing a fluorophore-quencher pair peptide substrate (FLINT). The experiment is classed as biochemical. The settings on record: 11-point, 3-fold serial dilution, top 100 nM; 30 min preincubation; 15 μM 5Fam-KLTRAETV-K5Tamra substrate; kinetic reads over 30 min; read-out: FXIa Inhibition IC50. The procedure, abridged: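 FXIa ([…]) preincubated 30 min with compound (11-point, 3-fold, top 100 nM, 2% DMSO) in Tris pH 7.5, NaCl, CaCl2, BSA, CHAPS; 15 μM 5Fam-KLTRAETV-K5Tamra substrate then added. Fluorescence (485/520 nm) read kinetically over 30 min at room temperature; IC50 by 4-parameter fit.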

Another experiment deals with human plasma kallikrein (Homo sapiens, UniProt P03952). Briefly: Kallikrein inhibition assay utilizing a quenched AMC peptide substrate (FLINT). In kind it is biochemical. The conditions noted are these: 11-point, 3-fold serial dilution, top 1 μM; 30 min preincubation; 2 nM kallikrein; 50 μM Z-Gly-Pro-Arg-AMC; kinetic reads over 30 min. Put shortly: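 Human plasma kallikrein (2 nM final) was pre-incubated 30 min at room temperature with compound (11-point 3-fold series, top 1 μM, 2% DMSO) in Tris pH 7.5, NaCl, CaCl2, BSA, CHAPS buffer. Reaction started with 50 μM Z-Gly-Pro-Arg-AMC (KM 40 μM), and fluorescence (340/440 nm) was read kinetically over 30 min. IC50 came from a 4-parameter logistic fit.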
Sequence of human plasma kallikrein (P03952 391-638 limits assumed): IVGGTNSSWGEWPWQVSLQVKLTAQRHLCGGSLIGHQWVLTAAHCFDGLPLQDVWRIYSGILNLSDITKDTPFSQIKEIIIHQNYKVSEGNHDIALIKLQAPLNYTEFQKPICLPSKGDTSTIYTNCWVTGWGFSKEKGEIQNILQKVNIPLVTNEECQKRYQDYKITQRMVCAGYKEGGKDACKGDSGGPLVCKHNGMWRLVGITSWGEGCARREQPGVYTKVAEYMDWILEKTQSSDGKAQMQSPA
Sequence of human plasma kallikrein (P03952 20-390 partner limits assumed): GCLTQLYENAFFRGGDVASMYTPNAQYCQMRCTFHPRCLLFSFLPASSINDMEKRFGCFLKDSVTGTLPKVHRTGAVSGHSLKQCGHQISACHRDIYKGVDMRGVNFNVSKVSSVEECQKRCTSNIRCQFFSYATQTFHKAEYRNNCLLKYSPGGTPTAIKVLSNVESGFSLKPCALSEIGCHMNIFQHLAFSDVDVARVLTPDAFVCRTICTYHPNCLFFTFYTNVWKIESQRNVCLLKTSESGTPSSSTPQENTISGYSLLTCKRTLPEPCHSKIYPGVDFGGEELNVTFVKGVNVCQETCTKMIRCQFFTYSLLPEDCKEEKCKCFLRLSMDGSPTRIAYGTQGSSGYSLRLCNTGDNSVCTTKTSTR

Sequence of Factor XIa (P03951 388-625 limits assumed): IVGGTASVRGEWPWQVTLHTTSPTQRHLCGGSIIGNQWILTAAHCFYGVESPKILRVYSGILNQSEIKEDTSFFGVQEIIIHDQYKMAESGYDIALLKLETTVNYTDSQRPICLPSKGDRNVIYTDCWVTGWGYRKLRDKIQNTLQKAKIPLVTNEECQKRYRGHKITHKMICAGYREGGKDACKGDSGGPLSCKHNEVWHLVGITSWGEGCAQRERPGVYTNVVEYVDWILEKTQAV
Sequence of Factor XIa (P03951 19-387 partner limits assumed): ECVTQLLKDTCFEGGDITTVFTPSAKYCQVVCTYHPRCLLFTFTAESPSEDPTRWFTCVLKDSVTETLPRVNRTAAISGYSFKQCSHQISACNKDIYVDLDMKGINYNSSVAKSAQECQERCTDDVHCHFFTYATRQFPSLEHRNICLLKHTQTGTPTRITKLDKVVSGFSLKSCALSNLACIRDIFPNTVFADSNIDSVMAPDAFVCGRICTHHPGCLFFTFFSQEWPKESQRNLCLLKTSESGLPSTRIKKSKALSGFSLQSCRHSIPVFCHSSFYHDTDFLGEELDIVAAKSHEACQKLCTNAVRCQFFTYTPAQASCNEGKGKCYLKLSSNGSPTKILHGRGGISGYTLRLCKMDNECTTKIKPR

Regarding `O=C(Nc1ccc(-c2nc(=O)o[nH]2)c(F)c1)[C@@H]1CC[C@H]2CC(c3c(-n4cnnn4)ccc(Cl)c3F)=CC(=O)N21` (single isomer, unassigned) [ID No. 36, (3S,8aS*)-7-(3-Chloro-2-fluoro-6-(1H-tetrazol-1-yl)phenyl)-N-(3-fluoro-4-(5-oxo-2,5-dihydro-1,2,4-oxadiazol-3-yl)phenyl)-5-oxo-1,2,3,5,8,8a-_hexahydroindolizine-3-carboxamide], the IC50 is 0.4 nM on Factor XIa and 8.8 nM against human plasma kallikrein.
For `Cc1nc(-c2ccc(NC(=O)[C@@H]3CC[C@@H]4CC(c5c(-n6cnnn6)ccc(Cl)c5F)=CC(=O)N43)cc2)no1` (single isomer, unassigned) [ID No. 50], in that order: 31.8 nM and 57 nM.
For `O=C(O)c1ccc(NC(=O)[C@@H]2CCC3CC(c4c(-n5cnnn5)ccc(Cl)c4F)=CC(=O)N32)cc1F` (single isomer, unassigned) [ID No. 51, (3S,8aS*)-4-[[7-[3-Chloro-2-fluoro-6-(tetrazol-1-yl)phenyl]-5-oxo-2,3,8,8a-tetrahydro-1H-indolizine-3-carbonyl]amino]-2-fluoro-benzoic acid], in that order: 2.5 nM and 149 nM.
For the molecule `O=C(O)c1ccc(NC(=O)[C@@H]2CC[C@@H]3CC(c4c(-n5cnnn5)ccc(Cl)c4F)=CC(=O)N32)cc1F` (single isomer, unassigned) [ID No. 52, (3S,8R*)-4-[[7-[3-Chloro-2-fluoro-6-(tetrazol-1-yl)phenyl]-5-oxo-2,3,8,8a-tetrahydro-1H-indolizine-3-carbonyl]amino]-2-fluoro-benzoic acid], the IC50 at Factor XIa turned out to be 0.9 nM; against human plasma kallikrein, 70.8 nM.
For `CC1(C)C[C@@H](C(=O)Nc2ccc3nccnc3c2)N2C(=O)C=C(c3c(-n4cnnn4)ccc(Cl)c3F)CC21` (single isomer, unassigned) [ID No. 59, (3S,8aR*)-7-[3-Chloro-2-fluoro-6-(tetrazol-1-yl)phenyl]-1,1-dimethyl-5-oxo-N-quinoxalin-6-yl-2,3,8,8a-tetrahydroindolizine-3-carboxamide], in that order: 82.9 nM and 38.8 nM.
For `Nc1noc2cc(NC(=O)[C@@H]3CCC4CC(c5c(-n6cnnn6)ccc(Cl)c5F)=CC(=O)N43)ccc12` (single isomer, unassigned) [ID No. 60, (3S,8aR*)—N-(3-Amino-1,2-benzoxazol-6-yl)-7-[3-chloro-2-fluoro-6-(tetrazol-1-yl)phenyl]-5-oxo-2,3,8,8a-tetrahydro-1H-indolizine-3-carboxamide], in that order: 6.7 nM and 29.7 nM.
As for `Nc1noc2cc(NC(=O)[C@@H]3CCC4CC(c5c(-n6cnnn6)ccc(Cl)c5F)=CC(=O)N43)ccc12` (single isomer, unassigned) [ID No. 61, (3S,8aS*)—N-(3-Amino-1,2-benzoxazol-6-yl)-7-[3-chloro-2-fluoro-6-(tetrazol-1-yl)phenyl]-5-oxo-2,3,8,8a-tetrahydro-1H-indolizine-3-carboxamide], the IC50 on Factor XIa is 8.9 nM; against human plasma kallikrein, 52.6 nM.
As for `CC1(C)C[C@@H](C(=O)Nc2ccc3nccnc3c2)N2C(=O)C=C(c3c(-n4cnnn4)ccc(Cl)c3F)CC21` (single isomer, unassigned) [ID No. 62, (3S,8aS*)-7-[3-Chloro-2-fluoro-6-(tetrazol-1-yl)phenyl]-1,1-dimethyl-5-oxo-N-quinoxalin-6-yl-2,3,8,8a-tetrahydroindolizine-3-carboxamide], the IC50 on Factor XIa was 13.3 nM; against human plasma kallikrein, 17.2 nM.
Take `O=C(Nc1ccc(-c2nc(=O)o[nH]2)cc1)[C@@H]1CCC2CC(c3c(-n4cnnn4)ccc(Cl)c3F)=CC(=O)N21` (single isomer, unassigned) [ID No. 63, (3S,8aR*)-7-[3-Chloro-2-fluoro-6-(tetrazol-1-yl)phenyl]-5-oxo-N-[4-(5-oxo-2H-1,2,4-oxadiazol-3-yl)phenyl]-2,3,8,8a-tetrahydro-1H-indolizine-3-carboxamide]: the IC50 at Factor XIa was found to be 0.6 nM; against human plasma kallikrein, 20.3 nM.
Take `O=C(Nc1ccc(-c2nnn[nH]2)cc1)[C@@H]1CC[C@H]2CC(c3c(-n4cnnn4)ccc(Cl)c3F)=CC(=O)N21` (single isomer, unassigned) [ID No. 65, (3S,8aS*)-7-[3-Chloro-2-fluoro-6-(tetrazol-1-yl)phenyl]-5-oxo-N-[4-(1H-tetrazol-5-yl)phenyl]-2,3,8,8a-tetrahydro-1_H-indolizine-3-carboxamide]: the values for the IC50 at Factor XIa and on human plasma kallikrein were 1.9 nM and 36.6 nM, respectively.
`O=C(Nc1ccc(-c2nnn[nH]2)cc1)[C@@H]1CCC2CC(c3c(-n4cnnn4)ccc(Cl)c3F)=CC(=O)N21` (single isomer, unassigned) [ID No. 66, (3S,8aR*)-7-[3-Chloro-2-fluoro-6-(tetrazol-1-yl)phenyl]-5-oxo-N-[4-(1H-tetrazol-5-yl)phenyl]-2,3,8,8a-tetrahydro-1H-indolizine-3-carboxamide]: the IC50 was determined as 0.8 nM at Factor XIa and 19.2 nM at human plasma kallikrein.
With `C[C@H]1C[C@@H](C(=O)Nc2ccc3nccnc3c2)N2C(=O)C=C(c3c(-n4cnnn4)ccc(Cl)c3F)C[C@@H]12` (single isomer, unassigned) [ID No. 79, (1S*,3S,8aS*)-7-[3-Chloro-2-fluoro-6-(tetrazol-1-yl)phenyl]-1-methyl-5-oxo-N-quinoxalin-6-yl-2,3,8,8a-tetrahydro-1H-indolizine-3-carboxamide], the IC50 on Factor XIa amounted to 3.9 nM; on human plasma kallikrein, 7.5 nM.
For `C[C@H]1C[C@@H](C(=O)Nc2ccc3nccnc3c2)N2C(=O)C=C(c3c(-n4cnnn4)ccc(Cl)c3F)C[C@H]12` (single isomer, unassigned) [ID No. 80, (1S*,3S,8aR*)-7-[3-Chloro-2-fluoro-6-(tetrazol-1-yl)phenyl]-1-methyl-5-oxo-N-quinoxalin-6-yl-2,3,8,8a-tetrahydro-1H-indolizine-3-carboxamide], in that order: 45.9 nM and 59.5 nM.
Turning to `Nc1ccc2cc(NC(=O)[C@@H]3CC[C@@H]4CC(c5c(-n6cnnn6)ccc(Cl)c5F)=CC(=O)N43)ccc2n1` [ID No. 6, (3S,8aR)—N-(2-Aminoquinolin-6-yl)-7-(3-chloro-2-fluoro-6-(1H-tetrazol-1-yl)phenyl)-5-oxo-1,2,3,5,8,8a-hexahydroindolizine-3-carboxamide], the IC50 at Factor XIa worked out at 8 nM; on human plasma kallikrein, 14.3 nM.
Consider `CC1(C)C(=O)Nc2ccc(NC(=O)[C@@H]3CC[C@@H]4CC(c5c(-n6cnnn6)ccc(Cl)c5F)=CC(=O)N43)cc21` [ID No. 7, (3S,8aR)-7-(3-Chloro-2-fluoro-6-(1H-tetrazol-1-yl)phenyl)-N-(3,3-dimethyl-2-oxoindolin-5-yl)-5-oxo-1,2,3,5,8,8a-hexahydroindolizine-3-carboxamide], for which the IC50 is 65 nM on Factor XIa and 131 nM on human plasma kallikrein.
Turning to `O=C(Nc1ccc2c(c1)C1(CCCC1)C(=O)N2)[C@@H]1CC[C@@H]2CC(c3c(-n4cnnn4)ccc(Cl)c3F)=CC(=O)N21` [ID No. 8, (3S,8aR)-7-(3-Chloro-2-fluoro-6-(1H-tetrazol-1-yl)phenyl)-5-oxo-N-(2′-oxospiro[cyclopentane-1,3′-indolin]-5′-yl)-1,2,3,5,8,8a-hexahydroindolizine-3-carboxamide], the IC50 on Factor XIa came to 62.1 nM; against human plasma kallikrein it was 178 nM.
